{"source": "paper PMC10700596", "about": "(Nature Communications, 2023)", "key": {"ERBB4": {"molecular_target": "ERBB4 (Homo sapiens, UniProt Q15303)", "assay": "biochemical", "assay_type": "binding", "conditions": "10000 nM; read-out: Percent Control"}, "EP2R": {"molecular_target": "EP2R (Homo sapiens, UniProt P43116)", "sequence (P43116 whole entry)": "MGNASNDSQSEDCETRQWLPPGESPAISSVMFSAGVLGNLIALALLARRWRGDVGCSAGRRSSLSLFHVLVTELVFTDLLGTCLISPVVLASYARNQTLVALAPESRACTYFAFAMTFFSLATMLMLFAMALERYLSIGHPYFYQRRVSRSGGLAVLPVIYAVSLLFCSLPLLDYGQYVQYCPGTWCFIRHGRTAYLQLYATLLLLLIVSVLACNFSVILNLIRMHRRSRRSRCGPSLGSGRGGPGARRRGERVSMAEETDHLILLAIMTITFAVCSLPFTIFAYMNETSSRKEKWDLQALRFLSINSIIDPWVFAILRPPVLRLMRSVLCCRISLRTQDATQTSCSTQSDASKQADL", "assay": "Radioligand (3H-PGE2) displacement assay at EP2R", "assay_type": "binding"}, "CDK9": {"molecular_target": "CDK9 (Homo sapiens, UniProt P50750)", "sequence (P50750 whole entry)": "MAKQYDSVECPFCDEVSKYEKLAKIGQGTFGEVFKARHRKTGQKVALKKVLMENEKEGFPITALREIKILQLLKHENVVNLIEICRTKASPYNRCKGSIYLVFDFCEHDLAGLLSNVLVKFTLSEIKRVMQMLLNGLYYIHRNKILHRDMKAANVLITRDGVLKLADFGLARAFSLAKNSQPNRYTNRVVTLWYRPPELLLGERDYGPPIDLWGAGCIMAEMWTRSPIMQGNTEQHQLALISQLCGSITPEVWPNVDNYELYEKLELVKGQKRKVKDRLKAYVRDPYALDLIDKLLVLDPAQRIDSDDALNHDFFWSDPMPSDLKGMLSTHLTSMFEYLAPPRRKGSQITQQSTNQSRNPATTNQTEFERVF", "assay": "biochemical", "assay_type": "binding", "conditions": "10000 nM; read-out: Percent Control"}, "IKK-beta": {"molecular_target": "IKK-beta (Homo sapiens, UniProt O14920)", "sequence (O14920 whole entry)": "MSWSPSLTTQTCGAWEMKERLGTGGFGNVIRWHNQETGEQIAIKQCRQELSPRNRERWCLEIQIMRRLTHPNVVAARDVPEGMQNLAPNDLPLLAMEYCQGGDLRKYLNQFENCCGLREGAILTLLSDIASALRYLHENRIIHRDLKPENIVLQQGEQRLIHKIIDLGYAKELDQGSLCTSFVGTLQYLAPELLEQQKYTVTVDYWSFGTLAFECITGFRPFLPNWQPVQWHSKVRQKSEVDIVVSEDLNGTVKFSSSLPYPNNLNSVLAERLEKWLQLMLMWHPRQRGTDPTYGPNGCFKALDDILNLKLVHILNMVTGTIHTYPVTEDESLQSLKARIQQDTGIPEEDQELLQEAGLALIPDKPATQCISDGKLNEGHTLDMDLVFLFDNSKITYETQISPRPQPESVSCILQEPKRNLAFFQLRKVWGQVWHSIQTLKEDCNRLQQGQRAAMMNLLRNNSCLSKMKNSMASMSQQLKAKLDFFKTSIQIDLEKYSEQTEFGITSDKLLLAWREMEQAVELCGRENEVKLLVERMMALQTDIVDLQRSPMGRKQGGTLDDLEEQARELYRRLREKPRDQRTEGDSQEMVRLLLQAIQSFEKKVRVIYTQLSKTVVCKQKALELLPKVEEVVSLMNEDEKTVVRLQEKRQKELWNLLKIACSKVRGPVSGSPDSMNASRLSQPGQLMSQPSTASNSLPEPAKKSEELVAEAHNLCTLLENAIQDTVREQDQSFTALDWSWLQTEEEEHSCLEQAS", "assay": "biochemical", "assay_type": "binding", "conditions": "10000 nM; read-out: Percent Control"}, "EP4R": {"molecular_target": "T1, EP4R (Homo sapiens, UniProt P35408)", "T1 construct": "Tango fusion cassette (only 'tango' is printed); expressed in transfected cells; host or cells: HTLA cells (tTA-dependent luciferase reporter, β-arrestin2-TEV fusion)", "assay": "biochemical", "assay_type": "binding", "conditions": "3H-PGE2; read-out: Radiologand displacement Ki"}, "TIE2": {"molecular_target": "TIE2 (Homo sapiens, UniProt Q02763)", "assay": "biochemical", "assay_type": "binding", "conditions": "10000 nM; read-out: Percent Control"}, "BMPR2": {"molecular_target": "BMPR2 (Homo sapiens, UniProt Q13873)", "sequence (Q13873 27-1038)": "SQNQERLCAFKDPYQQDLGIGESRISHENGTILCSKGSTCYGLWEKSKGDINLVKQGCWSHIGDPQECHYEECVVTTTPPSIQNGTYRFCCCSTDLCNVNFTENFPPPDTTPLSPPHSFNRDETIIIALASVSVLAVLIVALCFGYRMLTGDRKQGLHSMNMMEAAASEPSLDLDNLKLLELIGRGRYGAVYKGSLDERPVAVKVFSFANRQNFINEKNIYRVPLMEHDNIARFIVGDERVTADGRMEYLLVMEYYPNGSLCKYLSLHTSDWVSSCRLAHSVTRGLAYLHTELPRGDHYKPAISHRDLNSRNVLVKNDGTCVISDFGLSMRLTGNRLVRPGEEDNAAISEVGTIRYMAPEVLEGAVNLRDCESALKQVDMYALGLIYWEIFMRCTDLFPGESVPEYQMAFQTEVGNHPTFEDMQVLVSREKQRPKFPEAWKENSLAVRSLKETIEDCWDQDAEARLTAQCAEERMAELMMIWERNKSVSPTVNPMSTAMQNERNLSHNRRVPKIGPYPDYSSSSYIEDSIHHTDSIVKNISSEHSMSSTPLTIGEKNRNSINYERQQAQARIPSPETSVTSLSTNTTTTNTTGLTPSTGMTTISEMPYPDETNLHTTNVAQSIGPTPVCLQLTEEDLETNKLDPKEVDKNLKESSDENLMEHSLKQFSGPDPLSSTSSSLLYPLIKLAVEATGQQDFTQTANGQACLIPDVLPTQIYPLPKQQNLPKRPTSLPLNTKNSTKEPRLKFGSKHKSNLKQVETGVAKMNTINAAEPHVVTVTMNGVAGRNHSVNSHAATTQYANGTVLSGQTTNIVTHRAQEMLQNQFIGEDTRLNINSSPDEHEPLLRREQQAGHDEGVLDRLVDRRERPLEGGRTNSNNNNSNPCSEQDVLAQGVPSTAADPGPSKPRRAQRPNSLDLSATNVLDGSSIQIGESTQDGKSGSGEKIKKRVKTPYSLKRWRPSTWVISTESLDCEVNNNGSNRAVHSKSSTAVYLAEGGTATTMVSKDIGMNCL", "assay": "biochemical", "assay_type": "binding", "conditions": "for Signal (qPCR): BMPR2", "description": "Supplementary Figure 7: Non-GPCR off-target screening for 74. a)-e) Dose-response curves of 74 at\nproliferator-activated receptor gamma (PPARγ, Eurofins item G124). Data in a)-e) and g)-i) represent two\ntechnical replicates. Source data are provided as a Source Data file."}, "COX-2": {"molecular_target": "T2, COX-2 (Homo sapiens, UniProt P35354)", "T2 construct": "purchased Eurofins item 4186", "T2 sequence (P35354 18-604)": "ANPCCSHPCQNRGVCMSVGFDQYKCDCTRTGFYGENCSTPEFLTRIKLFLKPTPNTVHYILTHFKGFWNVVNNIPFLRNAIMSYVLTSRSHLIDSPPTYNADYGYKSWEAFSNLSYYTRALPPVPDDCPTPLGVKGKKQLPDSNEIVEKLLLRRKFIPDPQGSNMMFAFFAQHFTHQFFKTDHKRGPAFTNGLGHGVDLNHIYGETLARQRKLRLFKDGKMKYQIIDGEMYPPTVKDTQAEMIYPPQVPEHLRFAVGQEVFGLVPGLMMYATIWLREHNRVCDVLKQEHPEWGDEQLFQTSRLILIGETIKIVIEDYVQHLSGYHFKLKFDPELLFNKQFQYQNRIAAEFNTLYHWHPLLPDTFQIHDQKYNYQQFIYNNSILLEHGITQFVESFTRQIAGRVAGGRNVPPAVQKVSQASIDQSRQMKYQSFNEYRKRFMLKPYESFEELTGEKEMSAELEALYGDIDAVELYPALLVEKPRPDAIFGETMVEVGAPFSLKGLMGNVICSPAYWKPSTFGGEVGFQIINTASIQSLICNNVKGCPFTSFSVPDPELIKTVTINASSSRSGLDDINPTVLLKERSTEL", "assay": "COX-2 inhibition (Eurofins item 4186)", "assay_type": "biochemical", "description": "(§1) . […] This panel includes several adverse drug reaction receptors such as the serotonin receptor 5HT2b, M1 and M2 muscarinic receptors and adrenergic receptors. […]. page 7:\n(§2) Supplementary Figure 7: Non-GPCR off-target screening for 74. a)-e) Dose-response curves of 74 at […]\n(§3) proliferator-activated receptor gamma (PPARγ, Eurofins item G124). Data in a)-e) and g)-i) represent two technical replicates. Source data are provided as a Source Data file.\n(§4) (1 picture or pasted object on this page, not shown here)"}, "PPARγ": {"molecular_target": "T3, PPARγ (Homo sapiens, UniProt P37231)", "T3 construct": "purchased Eurofins item G124", "assay": "PPARγ agonist/antagonist assay (Eurofins item G124)", "assay_type": "biochemical", "description": "as §1, §2, §3, §4"}, "COX-1": {"molecular_target": "T4, COX-1 (Homo sapiens, UniProt P23219)", "T4 construct": "purchased Eurofins item 4173", "T4 sequence (P23219 24-599)": "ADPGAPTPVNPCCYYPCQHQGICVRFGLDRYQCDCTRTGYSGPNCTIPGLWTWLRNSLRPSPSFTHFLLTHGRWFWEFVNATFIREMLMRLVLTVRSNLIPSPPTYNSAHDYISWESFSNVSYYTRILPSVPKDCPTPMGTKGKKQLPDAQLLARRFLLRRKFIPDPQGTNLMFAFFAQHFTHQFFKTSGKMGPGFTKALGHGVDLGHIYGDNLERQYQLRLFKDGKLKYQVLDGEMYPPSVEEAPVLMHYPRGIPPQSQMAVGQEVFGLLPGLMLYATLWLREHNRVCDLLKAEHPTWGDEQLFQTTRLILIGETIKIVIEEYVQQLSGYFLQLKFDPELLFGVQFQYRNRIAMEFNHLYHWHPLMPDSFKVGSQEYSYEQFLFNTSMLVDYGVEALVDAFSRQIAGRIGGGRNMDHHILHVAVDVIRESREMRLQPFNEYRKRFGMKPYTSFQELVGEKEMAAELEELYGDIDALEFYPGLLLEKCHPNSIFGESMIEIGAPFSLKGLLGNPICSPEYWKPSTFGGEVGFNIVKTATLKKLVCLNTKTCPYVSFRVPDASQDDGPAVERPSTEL", "assay": "COX-1 inhibition (Eurofins item 4173)", "assay_type": "biochemical", "description": "as §1, §2, §3, §4"}, "TSSK1B": {"molecular_target": "TSSK1B (Homo sapiens, UniProt Q9BXA7)", "assay": "biochemical", "assay_type": "binding", "conditions": "10000 nM; read-out: Percent Control"}, "CSNK1G2": {"molecular_target": "CSNK1G2 (Homo sapiens, UniProt P78368)", "sequence (P78368 whole entry)": "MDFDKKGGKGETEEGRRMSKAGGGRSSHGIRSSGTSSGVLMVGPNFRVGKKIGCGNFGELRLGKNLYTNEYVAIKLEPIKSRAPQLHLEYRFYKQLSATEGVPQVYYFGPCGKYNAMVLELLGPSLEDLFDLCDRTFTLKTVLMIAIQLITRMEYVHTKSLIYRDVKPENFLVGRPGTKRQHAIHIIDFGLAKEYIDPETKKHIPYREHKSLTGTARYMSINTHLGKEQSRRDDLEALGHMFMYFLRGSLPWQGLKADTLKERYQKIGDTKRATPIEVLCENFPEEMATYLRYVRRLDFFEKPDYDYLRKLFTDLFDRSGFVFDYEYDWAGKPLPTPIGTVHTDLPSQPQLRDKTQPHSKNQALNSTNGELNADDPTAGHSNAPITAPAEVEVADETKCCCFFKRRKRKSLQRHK", "assay": "biochemical", "assay_type": "binding", "conditions": "10000 nM; read-out: Percent Control"}, "ABL1-nonphosphorylated": {"molecular_target": "ABL1-nonphosphorylated (Homo sapiens, UniProt P00519)", "assay": "biochemical", "assay_type": "binding", "conditions": "10000 nM; read-out: Percent Control"}, "ABL1-phosphorylated": {"molecular_target": "ABL1-phosphorylated (Homo sapiens, UniProt P00519)", "assay": "biochemical", "assay_type": "binding", "conditions": "10000 nM; read-out: Percent Control"}, "wild-type EP4R": {"molecular_target": "wild-type EP4R (Homo sapiens, UniProt P35408)", "sequence (P35408 whole entry)": "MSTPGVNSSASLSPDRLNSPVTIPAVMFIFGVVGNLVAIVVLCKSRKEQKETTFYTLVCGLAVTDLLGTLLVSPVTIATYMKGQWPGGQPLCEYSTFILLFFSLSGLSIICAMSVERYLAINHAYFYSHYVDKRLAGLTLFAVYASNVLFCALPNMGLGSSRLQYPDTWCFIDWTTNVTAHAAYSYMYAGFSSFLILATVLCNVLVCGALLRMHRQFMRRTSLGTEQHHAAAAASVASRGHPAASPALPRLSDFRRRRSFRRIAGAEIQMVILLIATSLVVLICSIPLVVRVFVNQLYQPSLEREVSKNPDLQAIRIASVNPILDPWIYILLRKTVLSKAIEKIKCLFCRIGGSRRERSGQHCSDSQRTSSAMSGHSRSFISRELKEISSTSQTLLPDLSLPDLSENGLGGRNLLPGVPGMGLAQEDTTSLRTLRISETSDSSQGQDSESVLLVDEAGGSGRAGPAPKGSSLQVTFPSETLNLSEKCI", "assay": "cell-based"}, "mice [1]": {"system": "mice", "assay_type": "in vivo", "conditions": "for CFA-induced allodynia, mechanical threshold (von Frey): individual animals"}, "BRAF(V600E)": {"molecular_target": "BRAF(V600E) (Homo sapiens, UniProt P15056, V600E)", "assay": "biochemical", "assay_type": "binding", "conditions": "10000 nM; read-out: Percent Control"}, "EP4R Thr76Ala mutant": {"molecular_target": "EP4R Thr76Ala mutant (Homo sapiens, UniProt P35408, T76A)", "sequence (P35408 whole entry T76A)": "as the sequence (P35408 whole entry) above, with T76A counted along it", "assay_type": "cell-based", "conditions": "IC50 vs WT EP4R", "description": "three independent experiments. Source data are provided as a Source Data file.\nas §4"}, "[2]": {"molecular_target": "ABL1(T315I)-phosphorylated (Homo sapiens, UniProt P00519, T315I)", "assay": "biochemical", "assay_type": "binding", "conditions": "10000 nM; read-out: Percent Control"}, "AURKB": {"molecular_target": "AURKB (Homo sapiens, UniProt Q96GD4)", "sequence (Q96GD4 whole entry)": "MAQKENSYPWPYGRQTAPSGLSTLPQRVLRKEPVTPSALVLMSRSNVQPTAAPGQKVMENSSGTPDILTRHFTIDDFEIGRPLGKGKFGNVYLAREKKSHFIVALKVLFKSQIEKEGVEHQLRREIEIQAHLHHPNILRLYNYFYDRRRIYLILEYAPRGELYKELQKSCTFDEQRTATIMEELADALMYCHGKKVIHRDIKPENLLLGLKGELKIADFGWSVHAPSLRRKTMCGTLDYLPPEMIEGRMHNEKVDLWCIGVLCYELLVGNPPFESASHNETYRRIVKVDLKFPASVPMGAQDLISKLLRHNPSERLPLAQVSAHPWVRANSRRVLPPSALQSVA", "assay": "biochemical", "assay_type": "binding", "conditions": "10000 nM; read-out: Percent Control", "description": "as §4"}, "mice [3]": {"system": "mice", "assay_type": "in vivo", "method": "For all behavioral tests, the experimenter was always blind to treatment. Animals were habituated for 60 min in Plexiglas cylinders before testing. […] For 10 mg/kg doses, compounds were prepared in 2.5 mg/ml solutions of which 100 µL were administered to mice (average weight 25 g). For 30 mg/kg doses, 7.5 mg/ml solutions were prepared. […] Hindpaw mechanical thresholds were determined with von Frey filaments using the up-down method, 60 min after administration of the EP4R antagonists (i.p. or via oral gavage). For the ambulatory (rotarod) test, mice were first trained on an accelerating rotating rod, 3 times for 5 minutes, before testing with any compound. On the test day, latency to fall from the rod was measured 1 h after injection of the compound. The cutoff was 300 s. Statistical tests were performed with GraphPad Prism 9.0 (GraphPad Software Inc., San Diego)."}, "mice [4]": {"system": "mice", "assay_type": "in vivo", "conditions": "for Carrageenan-induced allodynia, mechanical threshold (von Frey): individual animals"}}, "note": "Values joined by “and” are separate entries in the source; they are usually repeats but may differ in a detail not shown here. Equal values may be shown once. “Also recorded” adds a separate entry of the source. Read-outs that look alike come from different tables or passages of the source.", "data": [{"compound": "O=C(O)C1CCC2(CC1)CC(Nc1ncnc3[nH]c4c(F)cccc4c13)C2", "note": "(stereo not shown) [Compound 74, OC(=O)C1CCC2(CC(C2)NC=3N=CN=C4NC=5C(F)=CC=CC5C34)CC1]", "values": [{"measurement": "remaining activity at 10 µM", "setting": "ERBB4", "result": 99, "unit": "%"}, {"measurement": "binding to EP2 receptor", "setting": "EP2R", "result": "no binding"}, {"measurement": "remaining activity at 10 µM", "setting": "CDK9", "result": 97, "unit": "%"}, {"measurement": "remaining activity at 10 µM", "setting": "IKK-beta", "result": 3.2, "unit": "%"}, {"measurement": "Ki", "setting": "EP4R", "result": 366, "unit": "nM"}, {"measurement": "remaining activity at 10 µM", "setting": "TIE2", "result": 81, "unit": "%"}, {"measurement": "remaining activity at 10 µM", "setting": "BMPR2; 10000 nM, read-out: Percent Control", "result": 0, "unit": "%"}, {"measurement": "Kd", "setting": "BMPR2; BMPR2, dose-response", "result": 30, "unit": "nM"}, {"measurement": "Signal (qPCR)", "setting": "BMPR2; compound 1e-5 nM", "result": "3.65e-5 and 5.32e-5"}, {"measurement": "Signal (qPCR)", "setting": "BMPR2; compound 0.0001 nM", "result": "5.46e-5 and 5.63e-5"}, {"measurement": "Signal (qPCR)", "setting": "BMPR2; compound 0.001 nM", "result": "6.07e-5 and 6.11e-5"}, {"measurement": "Signal (qPCR)", "setting": "BMPR2; compound 0.169 nM", "result": "4.64e-5 and 4.8e-5"}, {"measurement": "Signal (qPCR)", "setting": "BMPR2; compound 0.508 nM", "result": "4.94e-5 and 5.14e-5"}, {"measurement": "Signal (qPCR)", "setting": "BMPR2; compound 1.52 nM", "result": "5.5e-5 and 5.39e-5"}, {"measurement": "Signal (qPCR)", "setting": "BMPR2; compound 4.57 nM", "result": "5.07e-5 and 5.31e-5"}, {"measurement": "Signal (qPCR)", "setting": "BMPR2; compound 13.7 nM", "result": "3.76e-5 and 3.48e-5"}, {"measurement": "Signal (qPCR)", "setting": "BMPR2; compound 41.2 nM", "result": "2.19e-5 and 2.2e-5"}, {"measurement": "Signal (qPCR)", "setting": "BMPR2; compound 123 nM", "result": "7.98e-6 and 7.65e-6"}, {"measurement": "Signal (qPCR)", "setting": "BMPR2; compound 370 nM", "result": "1.69e-6 and 1.57e-6"}, {"measurement": "Signal (qPCR)", "setting": "BMPR2; compound 3330 nM", "result": "4.07e-8 and 4.89e-8"}, {"measurement": "Signal (qPCR)", "setting": "BMPR2; compound 10000 nM", "result": "1.28e-8 and 1.26e-8"}, {"measurement": "inhibitory / off-target activity at COX-2", "setting": "COX-2; 3 µM", "result": "no off-target activity; also recorded: no inhibitory activity"}, {"measurement": "%Inhibition of Control Values", "setting": "COX-2; COX-2, 3 µM, technical replicates", "result": "-20.9% and -2.6%"}, {"measurement": "agonist or antagonist activity at PPARγ", "setting": "PPARγ", "result": "no agonist or antagonist activity"}, {"measurement": "inhibitory activity against PPARγ", "setting": "PPARγ; 3 µM", "result": "no inhibitory activity"}, {"measurement": "inhibitory / off-target activity at COX-1", "setting": "COX-1; 3 µM", "result": "no off-target activity; also recorded: no inhibitory activity"}, {"measurement": "%Inhibition of Control Values", "setting": "COX-1; COX-1, 3 µM, technical replicates", "result": "-5.7% and -9.9%"}, {"measurement": "remaining activity at 10 µM", "setting": "TSSK1B", "result": 52, "unit": "%"}, {"measurement": "remaining activity at 10 µM", "setting": "CSNK1G2", "result": 54, "unit": "%"}, {"measurement": "remaining activity at 10 µM", "setting": "ABL1-nonphosphorylated", "result": 67, "unit": "%"}, {"measurement": "remaining activity at 10 µM", "setting": "ABL1-phosphorylated", "result": 63, "unit": "%"}, {"measurement": "IC50", "setting": "wild-type EP4R", "result": 78.9, "unit": "nM"}, {"measurement": "mode of antagonism by Schild analysis", "setting": "wild-type EP4R", "result": "competitive antagonism"}, {"measurement": "Ki", "setting": "wild-type EP4R; calculated using the Cheng Prusoff equation, read-out: Arrestin-BRET Ki*", "result": 15.6, "unit": "nM"}, {"measurement": "CFA-induced allodynia, mechanical threshold (von Frey)", "setting": "mice [1]; 10 mg/kg IP, day 3", "result": "31.5 and 39 and 36.3 and 64.2 and 20.2"}, {"measurement": "CFA-induced allodynia, mechanical threshold (von Frey)", "setting": "mice [1]; 30 mg/kg IP, day 4", "result": "35.4 and 28.1 and 62 and 31.3 and 22.9"}, {"measurement": "effect on CFA-induced mechanical allodynia", "setting": "mice [1]; 10 and 30 mg/kg i.p.", "result": "significantly decreased; also recorded: reduced"}, {"measurement": "remaining activity at 10 µM", "setting": "BRAF(V600E)", "result": 84, "unit": "%"}, {"measurement": "reduced potency at the Thr76Ala mutant", "setting": "EP4R Thr76Ala mutant", "result": 30, "unit": "fold"}, {"measurement": "remaining activity at 10 µM", "setting": "[2]", "result": 82, "unit": "%"}, {"measurement": "remaining activity at 10 µM", "setting": "AURKB", "result": 8.2, "unit": "%"}]}, {"compound": "O=C([O-])C1CCC2(CC1)CC(Nc1ncnc3[nH]c4c(F)cccc4c13)C2.[Na+]", "note": "(stereo not shown) [Compound 77, [Na+].[O-]C(=O)C1CCC2(CC(C2)NC=3N=CN=C4NC=5C(F)=CC=CC5C34)CC1]", "values": [{"measurement": "Rotarod latency to fall", "setting": "mice [3]; 30 mg/kg IP, 1 h after injection, cutoff 300 s, individual animals", "result": "300 s and 281 s and 295 s and 269 s"}, {"measurement": "motor impairment in the rotarod test", "setting": "mice [3]; mouse, in vivo", "result": "did not induce motor impairment"}, {"measurement": "Uninjured mice, individual animal values (Supplementary Figure 10A)", "setting": "mice [3]; uninjured mice, IP 30 mg/kg, single animals, 30 mg/kg", "result": "116 and 71.5 and 93.5 and 86.1 and 110.4"}, {"measurement": "Carrageenan-induced allodynia, mechanical threshold (von Frey)", "setting": "mice [4]; 10 mg/kg IP", "result": "27 and 58.1 and 18.1 and 18.3 and 32 and 31.3 and 24.3 and 20.9 and 32.5 and 40"}, {"measurement": "effect on carrageenan-mediated mechanical allodynia", "setting": "mice [4]; 10 mg/kg i.p.", "result": "equal anti-allodynic effects; also recorded: equally reduce carrageenan-mediated mechanical allodynia"}, {"measurement": "Carrageenan-induced allodynia, mechanical threshold (von Frey)", "setting": "mice [4]; 30 mg/kg IP", "result": "30.3 and 39.4 and 44.8 and 39.1 and 40.4"}, {"measurement": "Carrageenan-induced allodynia, mechanical threshold (von Frey)", "setting": "mice [4]; 30 mg/kg PO", "result": "45.8 and 24.2 and 57.3 and 32.3 and 42.9 and 24.5 and 10.4 and 51.4 and 11.4 and 35.4"}, {"measurement": "effect on carrageenan-mediated mechanical allodynia", "setting": "mice [4]; 30 mg/kg i.p. or p.o.", "result": "significant anti-allodynic properties"}]}]}
